The values that follow come from US20040009495A1, “Methods and products related to drug screening using gene expression patterns” (Whitehead Institute for Biomedical Research, priority 2001, published 2004).

Test [1] has as its system HL60 cells. The test can be described thus: Marker gene expression ratios to GAPDH in HL60 control cells (multiplex RT-PCR, direct gene dendrimer readout). It is filed as cell-based. Particulars: for Ave IL1RN/GAPDH / Ave SPP1/GAPDH / IL1RN fold increase over AML / SPP1 fold increase over AML: HL60 cells; for Ave IL1RN/GAPDH / Ave SPP1/GAPDH: highest stringency filter of 50% dilution, 1 uM ATRA or 10 nM PMA; for IL1RN fold increase over AML / SPP1 fold increase over AML: versus undifferentiated HL60 (AML).

Test [2] deals with HL60 cells. The experiment in a line: HL60 cell differentiation on exposure to inducing chemical. It is filed as cell-based. Here is the method: HL60 cells, provided by American Type Cell Culture (Manassas, Va.), were grown in RPMI medium 1640 with 10% fetal bovine serum (Sigma, St. Louis, Mo.) and 1% penicillin-streptomycin. For design of the model, neutrophil differentiation was stimulated with 1 uM ATRA (Sigma, St. Louis, Mo.) for 0, 24, 48, 72, and 120 hours and with 1.25% dimethyl sulfoxide (DMSO) (American Bioanalytical, Natick, Mass.) for 72 hours. Monocyte/macrophage differentiation was induced with 10 nM phorbol 12-myristate 13-acetate (PMA) (Sigma, St. Louis, Mo.) for 0, 4, 12, and 24, and 120 hours and with Vitamin D3 (1 alpha 25-dihydroxy) (Calbiochem, San Diego, Calif.) 2.5 uM for 72 hours. Differentiation was confirmed by morphological changes by light microscopy for monocyte/macrophage differentiation and by May Grunwald Giemsa stain for neutrophil differentiation.
Acute Myeloid Leukemia (AML) represents a form of cancer for which improved treatment in therapy is greatly sought. For more than 20 years, researchers have used a cell line (HL60 cell line) which closely mimics the behavior of AML and which is easily maintained in cell culture. […] The different gene expression signatures were evaluated for “in vivo authenticity” by confirming the same gene expression differences in native human neutrophils and native human monocytes compared to patient AML cells. […]

[3] abbreviates: treated HL60 cells, text summary over 3 plex and 5 plex.

As for `CC1=C(/C=C/C(C)=C/C=C/C(C)=C/C(=O)O)C(C)(C)CCC1` [ATRA, all trans retinoic acid], the “Ave IL1RN/GAPDH” value in the test with HL60 cells [1] (3 plex) and in the test with HL60 cells [1] (5 plex) was 0.02 each time. For the same compound, the “Ave SPP1/GAPDH” value turned out to be 0.03 in the test on HL60 cells [1] (3 plex) and 0.02 in the test on HL60 cells [1] (5 plex). For the same compound, in the test on HL60 cells [2], the “differentiation of HL60 cells upon exposure” value is listed as “differentiated into neutrophils”.
With `CCCCCCCCCCCCCC(=O)O[C@@H]1[C@@H](C)[C@@]2(O)[C@@H](C=C(CO)C[C@]3(O)C(=O)C(C)=C[C@@H]23)[C@@H]2C(C)(C)[C@]12OC(C)=O` [PMA, Phorbol 12-myristate 13-acetate], in the test on HL60 cells [1] (3 plex), the “Ave IL1RN/GAPDH” value is on record as 2.04, the “Ave SPP1/GAPDH” value was 1.17, the “IL1RN fold increase over AML” value is recorded as 84.4 fold and the “SPP1 fold increase over AML” value was 55.1 fold. For the same compound, in the test with HL60 cells [1] (5 plex), the “Ave IL1RN/GAPDH” value is recorded as 0.98, the “Ave SPP1/GAPDH” value came out at 0.55, the “IL1RN fold increase over AML” value is recorded as 40.5 fold and the “SPP1 fold increase over AML” value amounted to 25.9 fold. For the same compound, in the test with HL60 cells [1] (setting [3]), the “IL1RN increase with respect to AML” value is reported as 40-84 fold and the “SSP1 increase over AML” value is listed as 25-55 fold. Also, the “differentiation of HL60 cells upon exposure” value in the test with HL60 cells [2] was “differentiated into monocyte/macrophage”.
